From EP2740727B1, “Quinazolinone analogues for use as anticonvulsant agents” (King Saud University, priority 2012, dated 2014) come the findings set out here.

Like-named read-outs stand apart in the source and are kept apart here.

One data set concerns motor performance. Nature of the data set: Minimal neurotoxicity (chimney test), motor performance. Conditions: Protective index = TD50/ED50.
Data set [1] concerns Albino Swiss mice. The experiment in a line: Acute toxicity determination (LD50). Conditions: Therapeutic index = LD50/ED50.
Description: (§1) The acute toxicity detenninatioii (LD50) for compounds of formula 1 was performed. Compounds were given intraperitoneally (i.p.) in doses ranging from 0.1-5 mmol/kg. […] All behavioral changes and death during the observation periods were recorded. […] The protective index (PI) and therapeutic index (TI) of each compound were calculated.
(§2) Initially the approximate LD50 of each test compound was determined. Albino Swiss mice (25 g body weight) were then divided into 4 groups (6 mice each). […] The animals were then observed closely for 4 hours and then occasionally for 72 hours. The percentage of death in each group was then calculated.
Data set [2] in a line: in vivo. Conditions: mouse, ip.
Description: (§3) Median effective (ED50), and median sedative (TD50) were calculated.
The test system of data set [3] is Pentylenetetrazole (PTZ)-induced convulsion. The experiment in a line: Pentylenetetrazole (PTZ) seizure threshold test. It counts as in vivo, Swiss albino mice. The settings on record: for ED50: Mus musculus, ip, median effective dose, mice, log-probit method; for % Protection: PTZ 100 mg/kg i.p. 30 min later, 4 animals; for protection against PTZ-induced seizures: dose not given (tested 25, 50, 100 and 200 mg/kg i.p.). The method, then:
Adult male Swiss […] mice (22-28 g), approximately 10-week old, were used to conduct the anticonvulsant evaluation. They were housed in cages and kept at a temperature of 20 ± 2°C and a relative humidity of 55 ± 5% with a light-dark cycle of 12 h and fed with standard diet and water ad libitum. […] A control group of mice was included and received intraperitoneal (i.p.) injections of the test compounds' vehicle. […] Picrotoxin (pic) was freshly dissolved in 1 ml 0.1N warmed HCl and the final volume was made up with 0.9% NaCl.
A single 5 seconds episode of clonic spasms was taken as a threshold seizure.
In each of the chemical and the electrical methods described above, Swiss albino mice were divided into 4 groups (N = 4 animals).

Data set [4] can be described thus: in vivo. The settings on record: mouse, ip. The source holds these as a separate data set.
Description: as §1, §2
Data set [5] relates to Albino Swiss mice. The settings on record: mouse, in vivo, 72 h.
Description: as §1, §2

Description for motor performance: as §3

As to `COc1cc2nc(SCC(=O)NN)n(Cc3ccccc3)c(=O)c2cc1OC` [Compound 70, 2-(3-Benzyl-6,7-dimethoxy-4-oxo-3,4-dihydro-quinazolin-2-yl-thio)acetohydrazide], the PI with motor performance was determined as 4.67. The same compound had a TI in the data set on Albino Swiss mice [1] of 11.25. The compound further registered a TD50 in the data set “in vivo [2]” of 149 mg/kg. In data set [3], it took a dose of 32 mg/kg to reach the 50% effect level (ED50) and the “protection against PTZ-induced seizures” value was 100%. For the same compound, the “% Protection” value in data set [3] (dose 50 mg/Kg i.p. [sic]) is 100%. The compound further had an LD50 at 72 h in “in vivo [4]” (Albino Swiss) of 360 mg/kg.
On to `CCC(=O)NNC(=O)CSc1nc2ccc(Cl)cc2c(=O)n1-c1ccccc1` [Compound 89, N'-[2-(6-Chloro-4-oxo-3-phenyl-3,4-dihydro-quinazolin-2yl-thio)acetyl]propionohydrazide], for which the PI in the data set with motor performance was 8.5. For the same compound, the TI with Albino Swiss mice [1] is 24.6. This compound registered a TD50 in “in vivo [2]” of 100 mg/kg. In addition, in data set [3], the ED50 was 11.8 mg/kg and the “protection against PTZ-induced seizures” value is 100%. For the same compound, the “% Protection” value in data set [3] (dose 50 mg/Kg i.p. [sic]) is given as 100%. Moreover, the LD50 at 72 h in the data set “in vivo [4]” (Albino Swiss) was determined as 290 mg/kg.
In the data set with motor performance, `CC(=O)NNC(=O)CSc1nc2ccc(Cl)cc2c(=O)n1Cc1ccccc1` [Compound 105, N'-Acetyl-2-(3-benzyl-6-chloro-4-oxo-3,4-dihydro-quinazolin-2-yl-thio)acetohydrazide] gave a PI of 8.7. The TI with Albino Swiss mice [1] is listed as 9.7. In “in vivo [2]”, this compound came in with a TD50 of 215 mg/kg. In addition, in data set [3], it took a dose of 24.8 mg/kg to reach the 50% effect level (ED50) and the “protection against PTZ-induced seizures” value worked out at 100%. Moreover, in data set [3] (dose 150 mg/Kg i.p.), the “% Protection” value stood at 100%. Further, the LD50 at 72 h in the data set “in vivo [4]” (Albino Swiss) came out at 240 mg/kg.
In the data set on motor performance, `CCC(=O)NNC(=O)CSc1nc2cc(OC)c(OC)cc2c(=O)n1Cc1ccccc1` [Compound 110, N'-(2-(3-Benzyl-6,7-dimethoxy-4-oxo-3,4-dihydro-quinazolin-2-yl-thio)acetyl)propionohydrazide] gave a PI of 4.1. This compound also showed a TI in the data set with Albino Swiss mice [1] of 5.1. The TD50 in the data set “in vivo [2]” is 134 mg/kg. Also, in data set [3], the ED50 was 32.7 mg/kg and the “protection against PTZ-induced seizures” value was 100%. In addition, the “% Protection” value in data set [3] (dose 150 mg/Kg i.p.) was 100%. In addition, the LD50 at 72 h in the data set “in vivo [4]” (Albino Swiss) came to 168 mg/kg.
In the case of `O=C(CCc1ccccc1)NNC(=O)CSc1nc2ccc(Cl)cc2c(=O)n1Cc1ccccc1` [Compound 115, N'-(2-(3-Benzyl-6-chloro-4-oxo-3,4-dihydro-quinazolin-2-yl-thio)acetyl)-3-phenylpropanehydrazide], in the data set on motor performance, the PI is 4.6. For the same compound, in the data set with Albino Swiss mice [1], the TI is recorded as 9.8. The TD50 in the data set “in vivo [2]” worked out at 136 mg/kg. Besides, in data set [3], the ED50 turned out to be 29.5 mg/kg and the “protection against PTZ-induced seizures” value is 100%. The “% Protection” value in data set [3] (dose 150 mg/Kg i.p.) was determined as 100%. This compound also came in with an LD50 at 72 h in the data set “in vivo [4]” (Albino Swiss) of 290 mg/kg.
For `CCCC(CCC)C(=O)[O-].[Na+]` [Sodium Valproate, Sodium valproate, reference compound], the TD50 in “in vivo [2]” was found to be 470 mg/kg. In the data set on Albino Swiss mice [5], the TI is 5.2. The compound also registered an ED50 in data set [3] of 189 mg/kg. Also, the “% Protection” value in data set [3] (dose 50 mg/Kg i.p. [sic]) was 100%. Also, in “in vivo [4]”, the LD50 at 72 h came out at 985 mg/kg.
